For twelve compounds, IC50 results are on record in BindingDB's records for doi:10.1016/j.bmc.2007.03.063 (Zhengzhou University, 2007).

One may read the IC50 as the concentration that gives 50% inhibition. The low end stands for higher potency, the high end for lower potency.

The target of this test is Maltase-glucoamylase (Homo sapiens, UniProt O43451). In words: Inhibition of alpha-glucosidase.
Sequence of Maltase-glucoamylase (O43451 whole entry): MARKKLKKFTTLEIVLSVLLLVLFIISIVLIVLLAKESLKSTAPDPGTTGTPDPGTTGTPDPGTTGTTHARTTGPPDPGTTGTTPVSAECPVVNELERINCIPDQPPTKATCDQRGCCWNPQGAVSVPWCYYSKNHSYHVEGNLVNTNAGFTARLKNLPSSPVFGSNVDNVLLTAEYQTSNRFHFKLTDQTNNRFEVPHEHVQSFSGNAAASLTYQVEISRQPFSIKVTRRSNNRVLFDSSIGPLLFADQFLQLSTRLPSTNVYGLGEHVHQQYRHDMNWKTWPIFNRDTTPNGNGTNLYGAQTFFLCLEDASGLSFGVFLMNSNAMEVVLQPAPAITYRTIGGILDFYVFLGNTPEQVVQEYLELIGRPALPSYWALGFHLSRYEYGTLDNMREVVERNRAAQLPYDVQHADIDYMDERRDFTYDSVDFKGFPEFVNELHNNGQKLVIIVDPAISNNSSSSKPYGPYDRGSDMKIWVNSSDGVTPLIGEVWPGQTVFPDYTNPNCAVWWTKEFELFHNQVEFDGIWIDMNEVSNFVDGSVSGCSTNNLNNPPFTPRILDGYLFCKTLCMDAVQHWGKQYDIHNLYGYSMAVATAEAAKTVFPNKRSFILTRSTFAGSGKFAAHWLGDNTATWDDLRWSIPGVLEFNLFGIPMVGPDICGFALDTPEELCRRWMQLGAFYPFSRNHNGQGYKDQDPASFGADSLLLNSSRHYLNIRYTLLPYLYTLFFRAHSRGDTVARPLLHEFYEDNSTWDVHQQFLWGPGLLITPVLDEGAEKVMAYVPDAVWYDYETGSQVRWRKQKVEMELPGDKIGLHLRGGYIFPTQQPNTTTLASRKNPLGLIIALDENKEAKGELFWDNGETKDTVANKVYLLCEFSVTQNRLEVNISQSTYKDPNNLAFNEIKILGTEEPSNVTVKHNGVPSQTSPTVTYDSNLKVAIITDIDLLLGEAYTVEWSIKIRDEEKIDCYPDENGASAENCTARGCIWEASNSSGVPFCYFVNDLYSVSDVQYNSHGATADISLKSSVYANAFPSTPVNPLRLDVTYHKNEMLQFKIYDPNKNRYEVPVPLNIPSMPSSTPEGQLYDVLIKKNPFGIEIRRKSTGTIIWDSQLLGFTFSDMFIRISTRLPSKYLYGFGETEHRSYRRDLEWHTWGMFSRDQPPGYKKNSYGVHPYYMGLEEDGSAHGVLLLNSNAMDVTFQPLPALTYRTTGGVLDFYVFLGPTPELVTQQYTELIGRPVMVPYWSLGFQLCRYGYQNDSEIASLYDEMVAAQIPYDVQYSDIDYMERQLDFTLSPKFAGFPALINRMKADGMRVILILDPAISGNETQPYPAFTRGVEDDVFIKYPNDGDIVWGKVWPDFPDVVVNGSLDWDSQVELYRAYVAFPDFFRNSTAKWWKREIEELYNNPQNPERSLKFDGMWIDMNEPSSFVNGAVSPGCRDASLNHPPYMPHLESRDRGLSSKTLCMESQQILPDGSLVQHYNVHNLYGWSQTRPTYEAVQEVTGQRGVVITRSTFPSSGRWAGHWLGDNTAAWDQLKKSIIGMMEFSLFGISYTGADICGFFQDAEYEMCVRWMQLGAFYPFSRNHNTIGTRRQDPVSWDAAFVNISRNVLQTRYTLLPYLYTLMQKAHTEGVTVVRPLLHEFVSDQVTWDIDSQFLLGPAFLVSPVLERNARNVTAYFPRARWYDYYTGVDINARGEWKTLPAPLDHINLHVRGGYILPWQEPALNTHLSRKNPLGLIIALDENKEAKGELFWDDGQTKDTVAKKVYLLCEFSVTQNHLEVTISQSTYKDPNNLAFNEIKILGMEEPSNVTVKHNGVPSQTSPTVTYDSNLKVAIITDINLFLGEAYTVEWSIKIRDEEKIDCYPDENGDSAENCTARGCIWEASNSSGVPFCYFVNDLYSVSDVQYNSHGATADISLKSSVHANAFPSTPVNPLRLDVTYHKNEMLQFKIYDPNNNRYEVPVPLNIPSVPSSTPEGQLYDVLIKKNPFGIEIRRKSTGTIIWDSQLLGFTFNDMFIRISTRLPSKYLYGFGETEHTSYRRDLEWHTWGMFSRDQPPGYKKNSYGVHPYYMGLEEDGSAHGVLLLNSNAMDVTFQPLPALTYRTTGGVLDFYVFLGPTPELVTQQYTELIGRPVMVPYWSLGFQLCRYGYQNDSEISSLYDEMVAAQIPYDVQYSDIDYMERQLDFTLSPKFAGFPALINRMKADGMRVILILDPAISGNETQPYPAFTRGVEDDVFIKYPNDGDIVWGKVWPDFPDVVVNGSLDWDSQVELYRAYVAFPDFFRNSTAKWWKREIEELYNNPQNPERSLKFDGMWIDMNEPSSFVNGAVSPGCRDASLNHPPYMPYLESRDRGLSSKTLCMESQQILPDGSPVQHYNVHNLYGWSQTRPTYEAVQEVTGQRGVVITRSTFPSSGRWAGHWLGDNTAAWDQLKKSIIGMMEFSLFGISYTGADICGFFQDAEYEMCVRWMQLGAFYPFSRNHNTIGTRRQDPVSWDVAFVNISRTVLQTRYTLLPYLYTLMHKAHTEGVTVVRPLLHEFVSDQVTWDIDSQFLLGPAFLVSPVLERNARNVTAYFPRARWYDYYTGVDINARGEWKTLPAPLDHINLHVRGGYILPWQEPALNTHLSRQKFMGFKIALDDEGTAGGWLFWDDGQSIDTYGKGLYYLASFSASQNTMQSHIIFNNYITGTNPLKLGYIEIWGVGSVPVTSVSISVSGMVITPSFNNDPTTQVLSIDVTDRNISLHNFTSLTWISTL

`C=C1CC[C@@H]2[C@](C)(COC(=O)c3cccnc3)[C@H](OC(=O)c3cccnc3)CC[C@@]2(C)[C@@H]1/C=C/C1=CC(=C\C(C)=C\CCC/C=C/C)/OC1=O` [14-deoxy-11,12-didehydro-3,19-dinicotinate-15-(2,8-dimethanyl-2,7-octanedieneylidene)-andrographolide] came in with an IC50 of 28 µM. In other words, the double-digit micromolar range. For `C=C1CC[C@@H]2[C@](C)(COC(=O)c3cccnc3)[C@H](OC(=O)c3cccnc3)CC[C@@]2(C)[C@@H]1/C=C/C1=CC(=C/c2ccco2)/OC1=O` [14-deoxy-11,12-didehydro-3,19-dinicotinate-15-(2-furanmethanylidene)-andrographolide] the value was 36 µM; for `C=C1CC[C@@H]2[C@](C)(COC(=O)c3cccnc3)[C@H](OC(=O)c3cccnc3)CC[C@@]2(C)[C@@H]1/C=C/C1=CC(=C\c2ccc(N(C)C)cc2)/OC1=O` [14-deoxy-11,12-didehydro-3,19-dinicotinate-15-(p(-dimethylamino)benzylidene)-andrographolide], 25 µM; for `C=C1CC[C@@H]2[C@](C)(COC(=O)c3cccnc3)[C@H](OC(=O)c3cccnc3)CC[C@@]2(C)[C@@H]1/C=C/C1=CC(=C\c2ccc(OC)cc2)/OC1=O` [14-deoxy-11,12-didehydro-3,19-dinicotinate-15-p-methoxylbenzylidene andrographolide], 11 µM. For the compound `C=C1CC[C@@H]2[C@](C)(CO)[C@H](O)CC[C@@]2(C)[C@@H]1/C=C/C1=CC(=C/c2ccco2)/OC1=O` [14-deoxy-11,12-didehydro-15-(-2-furanmethanylidene)-andrographolide], the IC50 amounted to 100 µM. In the case of `C=C1CC[C@@H]2[C@](C)(CO)[C@H](O)CC[C@@]2(C)[C@@H]1/C=C/C1=CC(=C/c2cc(OC)c(OC)cc2OC)/OC1=O` [14-deoxy-11,12-didehydro-15-trimethoxylbenzylideneandrographolide] it was 84 µM. In the case of `C=C1CC[C@@H]2[C@](C)(CO)[C@H](O)CC[C@@]2(C)[C@@H]1/C=C/C1=CC(=C/c2ccc(N(C)C)cc2)/OC1=O` [14-deoxy-15-(p-(dimethanylamino)-benzylidene)-11,12-didehydroandrographolide] it was 70 µM; in that of `C=C1CC[C@@H]2[C@](C)(CO)[C@H](O)CC[C@@]2(C)[C@@H]1/C=C/C1=CC(=C/c2ccc3c(c2)OCO3)/OC1=O` [15-(benzo[1,3]dioxole-5-methanylidene)-14-deoxy-11,12-didehydroandrographolide], 82 µM; in that of `C=C1CC[C@@H]2[C@](C)(COC(=O)c3cccnc3)[C@H](OC(=O)c3cccnc3)CC[C@@]2(C)[C@@H]1/C=C/C1=CC(=C\c2cccc(Br)c2)/OC1=O` [15-(m-bromoacylbenzylidene)-14-deoxy-11,12-didehydro-3,19-dinicotinateandrographolide], 14 µM. In the case of `C=C1CC[C@@H]2[C@](C)(COC(=O)c3cccnc3)[C@H](OC(=O)c3cccnc3)CC[C@@]2(C)[C@@H]1/C=C/C1=CC(=C\c2ccc(Cl)cc2)/OC1=O` [15-(p-chlorinebenzylidene)-14-deoxy-11,12-didehydro-3,19-dinicotinateandrographolide] it was 6 µM; in that of `C=C1CC[C@@H]2[C@](C)(COC(=O)c3cccnc3)[C@H](OC(=O)c3cccnc3)CC[C@@]2(C)[C@@H]1/C=C/C1=CC(=C\c2ccccc2)/OC1=O` [15-benzylidene14-deoxy-11,12-didehydro-3,19-dinicotinateandrographolide], 16 µM; in that of `C=C1CC[C@@H]2[C@](C)(CO)[C@H](O)CC[C@@]2(C)[C@@H]1/C=C/C1=CC(=C/c2ccccc2)/OC1=O` [15-benzylidene-14-deoxy-11,12-didehydroandrographolide], 58 µM.
